From US20060009425A1, “Oral formulations of paricalcitol” (priority 2004, published 2006)
Like-named read-outs stand apart in the source and are kept apart here.

How the values were obtained:
[1] = tested on: serum parathyroid hormone (PTH) levels; assay: Phase 3 placebo-controlled TIW study, iPTH reduction (Example 7); format: in vivo, human
From the text: Methodology: This was a Phase 3, prospective, randomized, placebo-controlled, double-blind, 24-week Treatment Phase, multi-center study in CKD (Stages 3 and 4) subjects with elevated PTH levels (≧150 pg/mL). Subjects were randomized in an equal ratio (1:1) to 1 of 2 treatment groups: paricalcitol capsule (Group 1) and placebo (Group 2). Potential subjects underwent procedures to determine their baseline intact PTH (iPTH), calcium, and phosphorus levels for eligibility to receive treatment.
During the Treatment Phase, subjects were to self-administer study drug 3 times weekly, on Monday, Wednesday and Friday, for a total of 24 weeks. The initial dose was 2 or 4 mcg (depending on baseline iPTH levels). Procedures to be performed during the Treatment Phase included vital signs, chemistry and hematology, urinary pyridinoline, urinary deoxypyridinoline, serum bone-specific alkaline phosphatase, serum osteocalcin, urinalysis, spot urine for calcium/creatinine ratio, and recording of adverse events and concurrent medications. Serum iPTH, calcium, phosphorus, and albumin were measured every 2 weeks. Dose adjustments were to be made according to these chemistry results for iPTH, calcium, and phosphorus. Doses may have been increased in 2 mcg increments every 4 weeks.
Efficacy: The primary efficacy endpoint was the achievement of 2 consecutive ≧30% decreases from baseline iPTH levels. The secondary efficacy analyses include change and percent change from baseline analyses in iPTH and change from baseline analyses in biochemical bone markers.
The Intent-To-Treat population (Full Analysis Set) was defined as all randomized subjects with a baseline iPTH and at least 2 on-treatment iPTH measurements. This population was used in the primary efficacy analysis.

[2] = Bioavailability of capsule vs intravenous formulation, end-stage CKD on continuous peritoneal dialysis (Example 9); format: in vivo; conditions: human, plasma, 0.24 μg/kg; for half-life: CPD, read-out: harmonic mean of the terminal elimination half-life (converted)
Procedure: Methodology: This was a Phase I, open-label, randomized, single-dose, two-period, crossover, nonfasting study. Subjects were randomized into two sequence groups of
Formulations A and B. The two nonfasting study administrations were: […]
The strengths of the capsule formulations were 0.5, 1, 2 or 4 μg.
The intravenous formulation contained 2-10 micrograms/milliliter of paricalcitol, 30% (v/v) propylene glycol, 20% (v/v) ethanol and 50% (v/v) water.
Both formulations were administered immediately after CPD exchange in the morning, 30 minutes after breakfast was served. Phosphate binders, commonly used in the management of end-stage renal disease, were withheld 8 hours prior to and 2 hours after the drug administration. A washout interval of at least 7 days separated the doses of the two study periods.
Plasma concentrations of paricalcitol were determined using a validated HPLC-tandem mass spectrometric assay method at Abbott Laboratories, Abbott Park, Ill. The lower limit of quantitation of paricalcitol was 0.02 ng/mL using 0.6 mL of plasma.
Pharmacokinetic: The pharmacokinetic parameter values of paricalcitol were estimated using noncompartmental methods. These included: Cmax, t1/2, AUC0-t, AUC0-∞, CL, CL/F, Tmax, Vdβ and Vdβ/F, as described in the last example.
Statistical Methods: An analysis of variance (ANOVA) was performed for β and the logarithms of Cmax, AUC0-t and AUC0-∞. […] The number and percentage of subjects reporting adverse events were tabulated by COSTART term and body system. Laboratory values outside the reference ranges were flagged and evaluated for clinical significance.

[3] = tested on: serum and urine pharmacodynamic markers; assay: Serum and urine pharmacodynamic markers, moderate to severe renal impairment (Example 4)
Procedure: Blood samples for paricalcitol assay were collected by venipuncture into 7 mL evacuated EDTA-containing collection tubes within 5 minutes prior to dosing (0 hour) and at 0.5, 1, 2, 3, 4, 6, 8, 12, 24, 36, and 48 hours after dosing on Study Days 1 and 8. Sufficient blood was collected to provide approximately 2.5 mL plasma from each sample. In addition, urine was collected for 48 hours following Study Day 1 dosing. Serum and urine pharmacodynamic markers, were measured at selected time points in the study. Also, a 24 hr urine amount of urine pharmacodynamic markers were measured following paricalcitol dose on Study Days 1 and 8.
Pharmacodynamic: Serum pharmacodynamic markers [serum calcium, calcium-phosphorus product (Ca×P), serum phosphorus, serum bone specific alkaline phosphatase (AP), serum osteocalcin, serum C-terminal telopeptide of collagen (CTx), serum tartarate resistant acid phosphatase-type 5b (TRAP-5b), intact (iPTH) and whole PTH] were measured from samples collected immediately prior to dosing on Study Days 1, 3, 5, and 8. One additional sample was collected 48 hours following the Study Day 8 dose (on the morning of Study Day 10). Urine pharmacodynamic markers [calcium, creatinine and deoxy-pyridinoline (DPD)] were measured from samples collected immediately prior to dosing on Study Days 1 and 8, and during the intervals 0 to 4, 4 to 8, 8 to 12, and 12 to 24 hours after dosing on Study Days 1 and 8. In addition, these markers were measured using the first morning void sample on Study Days 3, 5, and 10.
Pharmacodynamic: Two-sample t-tests were performed to compare baseline pharmacodynamic marker values between the two renal impairment groups. For improving the normality of the distribution of the baseline values, natural logarithm transformations were made to all the pharmacodynamic markers except for the urine calcium and urine creatinine. The relationship between the % change from Study Day 1 to Study Day 10 and the Study Day 1 paricalcitol AUC0-∞ was investigated using linear regression. The Study Day 1 AUC0-∞ and the corresponding baseline value were independent variables. A one-sample t-test was performed for each group on the change from Study Day 1 to Study Day 8 in 24-hour amount of urine calcium and creatinine.

[4] = moderate and severe renal impairment groups, supra-pharmacologic fixed doses, 1-week study
[5] = moderate renal impairment, Study Day 1
[6] = moderate renal impairment, Study Day 8
[7] = severe renal impairment, Study Day 1
[8] = severe renal impairment, Study Day 8

C[C@H](/C=C/[C@H](C)C(C)(C)O)[C@H]1CC[C@H]2/C(=C/C=C3C[C@@H](O)C[C@H](O)C3)CCC[C@]12C [Paricalcitol, 19-nor-1α,3β,25-trihydroxy-9,10-secoergosta-5(Z); 7(E),22(E)-triene]
subjects with 4 consecutive ≧30% decreases from baseline in iPTH ([1]; 26/32, exploratory analysis): 81%
subjects with 2 consecutive ≧30% decreases from baseline in iPTH ([1]; 29/32, TIW, 24 weeks, CKD Stages 3 and 4): 91%
30% mean reduction in iPTH occurred by ([1]; TIW): ≤ 9 Week
mean change from baseline in iPTH at the Final Visit ([1]; TIW, 24 weeks): -80.7 pg/mL
mean change from baseline in iPTH at the Last On-Treatment Visit ([1]; TIW, 24 weeks): -83.1 pg/mL
percent decrease in iPTH at the Final Visit ([1]; TIW, 24 weeks): 30.3%
percent decrease in iPTH at the Last On-Treatment Visit ([1]; TIW, 24 weeks): 33.4%
maximum decrease from baseline in iPTH ([1]; observed at Week 17): −48.2%
half-life ([2]; following intravenous administration): ~15 h
half-life ([2]; following oral administration): ~18 h
bioavailability ([2]; single oral dose of capsule formulation, end-stage renal disease on CPD, read-out: absolute bioavailability): 86.1%
PTH levels [3, 4]: significant decrease
calcium, phosphorus, Ca×P levels [3, 4]: increases
Ca/Creatinine, urine over 24 hours after dose [3, 5]: 0.045 ± 0.051
Calcium, total amount excreted in urine over 24 hours after dose [3, 5]: 49.39 ± 56.85 mg
Creatinine, total amount excreted in urine over 24 hours after dose [3, 5]: 1326.7 ± 566.1 mg
DPD, total amount excreted in urine over 24 hours after dose [3, 5]: 52.03 ± 18.96 nmol
Ca/Creatinine, urine over 24 hours after dose [3, 6]: 0.074 ± 0.078
Calcium, total amount excreted in urine over 24 hours after dose [3, 6]: 79.24 ± 63.27 mg
Creatinine, total amount excreted in urine over 24 hours after dose [3, 6]: 1324.4 ± 402.0 mg
DPD, total amount excreted in urine over 24 hours after dose [3, 6]: 58.60 ± 16.45 nmol
24-hour urinary excretion of calcium ([3]; repeated dosing): does not affect
Ca/Creatinine, urine over 24 hours after dose [3, 7]: 0.028 ± 0.019
Calcium, total amount excreted in urine over 24 hours after dose [3, 7]: 29.18 ± 20.97 mg
Creatinine, total amount excreted in urine over 24 hours after dose [3, 7]: 1088.3 ± 278.6 mg
DPD, total amount excreted in urine over 24 hours after dose [3, 7]: 48.34 ± 21.04 nmol
Calcium, total amount excreted in urine over 24 hours after dose [3, 8]: 50.92 ± 41.18 mg
DPD, total amount excreted in urine over 24 hours after dose [3, 8]: 47.74 ± 20.47 nmol
